From BindingDB's records for PubMed 30559935 (University of Nottingham) come the findings set out here.

Molecules are shown by their SMILES. pIC50: −log10 of the molar value.

What is called pIC50 is the IC50 on a negative log10 scale, so that one unit is a factor of ten.

The nature of test [1]: Inhibition of EZH2 in human DKFZ-EP1 cells assessed as reduction in cell viability incubated for 120 hrs by MTT assay. A general note: Tetrazolium assays rely on reduction of a dye to a coloured formazan, in cell work by metabolically active cells.
Test [2] is described as follows: Inhibition of EZH2 in human EPN8 cells assessed as reduction in cell viability incubated for 120 hrs by MTT assay.
The nature of test [3]: Inhibition of EZH2 in human BXD-1425EPN cells assessed as reduction in cell viability incubated for 120 hrs by MTT assay.

Consider `CCCc1cc(C)[nH]c(=O)c1CNC(=O)c1cc(-c2ccnc(N3CCN(C)CC3)c2)cc2c1cnn2C(C)C`, for which the pIC50 in test [1] is 4.70; in test [2], 4.70; in test [3], 4.80.
